Measurements from patent US9145351B2, “Azole derivatives, methods for producing the same, intermediate thereof, agro-horticultural agents” (KUREHA CORPORATION, priority 2009, dated 2015).

Assays:
Type in all cases: cell-based
Ustilago nuda = assay: Plate medium fungicidal assay, barley loose smut U.n (Experimental Example 5)
Description: (§1) In this Experimental Example, the fungicidal effects of the inventive compounds on various phytopathogenic fungi for plants and hazardous microorganism for industrial materials were examined by the methods described below. Each inventive compound was dissolved in 2 ml of dimethyl sulfoxide. 0.6 ml of this solution was added to 60 nil of a PDA medium (potato dextrose agar medium) at about 60 degrees C., which was mixed thoroughly in a 100-ml conical flask, and poured into a dish, where it was solidified, thereby obtaining a plate medium containing the inventive compound at 50 mg/L and 5 mg/L. On the other hand, a subject microorganism previously cultured on a plate medium was cut out using a cork borer whose diameter was 4 mm, and inoculated to the test compound-containing plate medium described above. […] The growth degree of the microorganism on the test compound-containing plate medium thus observed was compared with the growth degree of the microorganism in the untreated group, and % mycelial growth inhibition was calculated by the following equation. R=100(dc−dt)/dc wherein R=% mycelial extension inhibition, dc=flora diameter in untreated plate, dt=flora diameter in treated plate. The results obtained as described above were evaluated as one of the 5 grades according to the following criteria. […] Barley loose smut (Ustilago nuda) U.n

Alternaria alternata = assay: Plate medium fungicidal assay, Alternaria blotch A.m (Experimental Example 5)
Description: as §1, with “Alternaria blotch (Alternaria alternata) A.m” for “Barley loose smut (Ustilago nuda) U.n”

Sclerotinia sclerotiorum = assay: Plate medium fungicidal assay, Sclerotinia rot S.s (Experimental Example 5)
Description: as §1, with “Sclerotinia rot (Sclerotinia sclerotiorum) S.s” for “Barley loose smut (Ustilago nuda) U.n”

Botritis cinerea = assay: Plate medium fungicidal assay, gray mold B.c (Experimental Example 5)
Description: as §1, with “Gray mold (Botritis cinerea) B.c” for “Barley loose smut (Ustilago nuda) U.n”

[1] = plate medium containing compound at 5 mg/L
[2] = plate medium containing compound at 50 mg/L

Row | SMILES | Growth inhibition grade, U.n (Ustilago nuda; [1]) | Growth inhibition grade, U.n (Ustilago nuda; [2]) | Growth inhibition grade, A.m (Alternaria alternata; [1]) | Growth inhibition grade, A.m (Alternaria alternata; [2]) | Growth inhibition grade, S.s (Sclerotinia sclerotiorum; [1]) | Growth inhibition grade, S.s (Sclerotinia sclerotiorum; [2]) | Growth inhibition grade, B.c (Botritis cinerea; [1]) | Growth inhibition grade, B.c (Botritis cinerea; [2]) | Growth inhibition grade, U.n (Ustilago nuda; plate medium, 5 mg/L) | Growth inhibition grade, U.n (Ustilago nuda; plate medium, 50 mg/L) | Growth inhibition grade, A.m (Alternaria alternata; plate medium, 5 mg/L) | Growth inhibition grade, A.m (Alternaria alternata; plate medium, 50 mg/L) | Growth inhibition grade, S.s (Sclerotinia sclerotiorum; plate medium, 5 mg/L) | Growth inhibition grade, S.s (Sclerotinia sclerotiorum; plate medium, 50 mg/L) | Growth inhibition grade, B.c (Botritis cinerea; plate medium, 5 mg/L) | Growth inhibition grade, B.c (Botritis cinerea; plate medium, 50 mg/L)
1 | C[C@@]1(CCl)CC[C@@H](Cc2ccc(Cl)cc2)[C@]1(O)Cn1cncn1 (racemic) [Compound I-101] | 5 (% Mycerial growth inhibition of 80% or higher) | 5 (% Mycerial growth inhibition of 80% or higher) | 5 (% Mycerial growth inhibition of 80% or higher) | 5 (% Mycerial growth inhibition of 80% or higher) | 5 (% Mycerial growth inhibition of 80% or higher) | 5 (% Mycerial growth inhibition of 80% or higher) | 5 (% Mycerial growth inhibition of 80% or higher) | 5 (% Mycerial growth inhibition of 80% or higher) |  |  |  |  |  |  |  | 
2 | C[C@]1(CCl)CC[C@@H](Cc2ccc(F)cc2F)[C@]1(O)Cn1cncn1 (relative stereo) [Compound I-88] | 5 (% Mycerial growth inhibition of 80% or higher) | 5 (% Mycerial growth inhibition of 80% or higher) | 4 (% Mycerial growth inhibition of less than 80 to 60% or higher) | 5 (% Mycerial growth inhibition of 80% or higher) | 5 (% Mycerial growth inhibition of 80% or higher) | 5 (% Mycerial growth inhibition of 80% or higher) | 5 (% Mycerial growth inhibition of 80% or higher) | 5 (% Mycerial growth inhibition of 80% or higher) |  |  |  |  |  |  |  | 
3 | C[C@]1(CCl)CC[C@@H](Cc2ccc(-c3ccccc3)cc2)[C@]1(O)Cn1cncn1 (relative stereo) [Compound I-82] | 5 (% Mycerial growth inhibition of 80% or higher) | 5 (% Mycerial growth inhibition of 80% or higher) | 5 (% Mycerial growth inhibition of 80% or higher) | 5 (% Mycerial growth inhibition of 80% or higher) | 5 (% Mycerial growth inhibition of 80% or higher) | 5 (% Mycerial growth inhibition of 80% or higher) | 5 (% Mycerial growth inhibition of 80% or higher) | 5 (% Mycerial growth inhibition of 80% or higher) |  |  |  |  |  |  |  | 
4 | C[C@]1(CCl)CC[C@@H](Cc2ccccc2F)[C@]1(O)Cn1cncn1 (relative stereo) [Compound I-86] | 5 (% Mycerial growth inhibition of 80% or higher) | 5 (% Mycerial growth inhibition of 80% or higher) | 4 (% Mycerial growth inhibition of less than 80 to 60% or higher) | 5 (% Mycerial growth inhibition of 80% or higher) | 5 (% Mycerial growth inhibition of 80% or higher) | 5 (% Mycerial growth inhibition of 80% or higher) | 5 (% Mycerial growth inhibition of 80% or higher) | 5 (% Mycerial growth inhibition of 80% or higher) |  |  |  |  |  |  |  | 
5 | O[C@]1(Cn2cncn2)[C@H](Cc2ccc(Cl)cc2)CCC1(CCl)CCl (relative stereo) [Compound I-203, cis-5-(4-chlorobenzyl)-2,2-bis(chloromethyl)-1-(1H-1,2,4-triazol-1-yl)methylcyclopentanol] |  |  |  |  |  |  |  |  | 5 (% Mycerial growth inhibition of 80% or higher) | 5 (% Mycerial growth inhibition of 80% or higher) | 5 (% Mycerial growth inhibition of 80% or higher) | 5 (% Mycerial growth inhibition of 80% or higher) | 5 (% Mycerial growth inhibition of 80% or higher) | 5 (% Mycerial growth inhibition of 80% or higher) | 5 (% Mycerial growth inhibition of 80% or higher) | 5 (% Mycerial growth inhibition of 80% or higher)
6 | C[C@]1(CCl)CC[C@H](Cc2cccc(Cl)c2)[C@]1(O)Cn1cncn1 (relative stereo) [Compound I-374] |  |  |  |  |  |  |  |  | 4 (% Mycerial growth inhibition of less than 80 to 60% or higher) | 5 (% Mycerial growth inhibition of 80% or higher) | 4 (% Mycerial growth inhibition of less than 80 to 60% or higher) | 5 (% Mycerial growth inhibition of 80% or higher) | 5 (% Mycerial growth inhibition of 80% or higher) | 5 (% Mycerial growth inhibition of 80% or higher) | 5 (% Mycerial growth inhibition of 80% or higher) | 5 (% Mycerial growth inhibition of 80% or higher)
7 | CC1(C)CCC(Cc2ccc(Cl)cc2)C1(O)Cn1ncnc1S (racemic) [compound (2)] |  |  |  |  |  |  |  |  | 1 (% Mycerial growth inhibition of less than 20%) | 3 (% Mycelial growth inhibition of less than 60 to 40% or higher) | 4 (% Mycerial growth inhibition of less than 80 to 60% or higher) | 4 (% Mycerial growth inhibition of less than 80 to 60% or higher) | 3 (% Mycelial growth inhibition of less than 60 to 40% or higher) | 5 (% Mycerial growth inhibition of 80% or higher) | 2 (% Mycerial growth inhibition of less than 40 to 20% or higher) | 5 (% Mycerial growth inhibition of 80% or higher)
8 | C[C@]1(CCl)CC[C@@H](Cc2ccc(OC(F)(F)F)cc2)[C@]1(O)Cn1cncn1 (relative stereo) [Compound I-79] | 5 (% Mycerial growth inhibition of 80% or higher) | 5 (% Mycerial growth inhibition of 80% or higher) | 5 (% Mycerial growth inhibition of 80% or higher) | 5 (% Mycerial growth inhibition of 80% or higher) | 5 (% Mycerial growth inhibition of 80% or higher) | 5 (% Mycerial growth inhibition of 80% or higher) | 5 (% Mycerial growth inhibition of 80% or higher) | 5 (% Mycerial growth inhibition of 80% or higher) |  |  |  |  |  |  |  | 
9 | C[C@@]1(CCl)CC[C@@H](Cc2cccc(Cl)c2)[C@]1(O)Cn1cncn1 (relative stereo) [Compound I-174] |  |  |  |  |  |  |  |  | 4 (% Mycerial growth inhibition of less than 80 to 60% or higher) | 5 (% Mycerial growth inhibition of 80% or higher) | 5 (% Mycerial growth inhibition of 80% or higher) | 5 (% Mycerial growth inhibition of 80% or higher) | 5 (% Mycerial growth inhibition of 80% or higher) | 5 (% Mycerial growth inhibition of 80% or higher) | 5 (% Mycerial growth inhibition of 80% or higher) | 5 (% Mycerial growth inhibition of 80% or higher)
